Test results from a melting point compilation (Tetko et al.; mined from patent text by program, amines drawn as free bases though some values may be those of a salt).

**Q.** For CCCCC[C@H]1CC[C@H](c2cnc(C#N)nc2)CC1, which melting point is on record?
**A.** 83.5 °C

**Q.** With CCn1c(C)c(C(=O)c2ccccc2)c(N=Cc2ccccc2)c1-c1ccccc1 as the compound, how does the melting point read?
**A.** 147 to 148 °C

**Q.** For O=C1OC(=O)c2cc3occc3c3cccc1c23, which melting point is on record?
**A.** 160 to 165 °C

**Q.** For Cc1nc(-c2cn(Cc3ccc(C(F)(F)F)cc3)nn2)sc1C(=O)NCc1ccccc1, which melting point is on record?
**A.** 131 to 132 °C

**Q.** For Nc1nc(Cl)c2ncn(CC3CCOCO3)c2n1 (centres undefined), which melting point is on record?
**A.** 169 to 170 °C

**Q.** For Cc1ccc(-c2ccc(C(=O)Nc3ccc4cc(CN5CCCC5)cnc4c3)c(F)c2)cc1, which melting point is on record?
**A.** 173 °C

**Q.** With C=CC(=O)N1C/C(=C\c2ccc([N+](=O)[O-])cc2)C(=O)/C(=C/c2ccc([N+](=O)[O-])cc2)C1 as the compound, how does the melting point read?
**A.** 170 to 172 °C

**Q.** Which melting point does the source give for N#Cc1ccc(NC2CCN(Cc3ccc(C(F)(F)F)cc3)CC2)nn1 here?
**A.** 243 °C

**Q.** For COc1cc(-c2ccc(C=O)o2)ccc1Br, which melting point is on record?
**A.** 127 to 128 °C

**Q.** Which melting point does the source give for NCCCCCNc1cccc2c1C(=O)c1c(NCCCCCN)cccc1C2=O here?
**A.** 115 to 116 °C

**Q.** With COc1ccc(N(C(=O)CCl)c2c(Cl)cccc2Cl)cc1 as the compound, how does the melting point read?
**A.** 105 to 106 °C

**Q.** For C=CCOc1ccccc1OCC(O)CN1CCC(N2CCCNC2=O)CC1 (centres undefined), which melting point is on record?
**A.** 122 to 125 °C

**Q.** For O=C(Nc1nc(=O)c2cnn3c2n1CC=C3c1cccc(C(F)(F)F)c1)OCC(Cl)(Cl)Cl, which melting point is on record?
**A.** 225 to 226 °C

**Q.** With CC(=O)N(C)c1nc(CN2CCN(C(c3ccccc3)c3ccccc3)CC2)cs1 as the compound, how does the melting point read?
**A.** 140 to 142 °C

**Q.** For O=C1CCCCN1c1ccc(I)cc1, which melting point is on record?
**A.** 108 to 110 °C

**Q.** Which melting point does the source give for NC(=O)Cn1ncc2c1CN=C(c1ccccc1)c1cc(Cl)ccc1-2 here?
**A.** 218 to 219 °C

**Q.** For CCn1c(C(F)(F)F)nn(C2=CCC(F)(C(N)=S)C(N)=C2)c1=O (centres undefined), which melting point is on record?
**A.** 161 °C

**Q.** With CCOC(=O)c1cnc2c(c(C)nn2CC)c1O as the compound, how does the melting point read?
**A.** 91 to 93 °C

**Q.** For Cc1ccc2c(c1Cl)C(=O)N(C1(C#N)CCCCC1)C2=O, which melting point is on record?
**A.** 165 to 168 °C

**Q.** For O=c1[nH]c2cc(Cl)cc(Cl)c2c(=O)n1Cc1cccc(Br)c1, which melting point is on record?
**A.** 161 to 165 °C

**Q.** For Nc1ncc(-c2ccc3ncc(-c4ccc(CO)cc4)n3n2)cc1C(F)(F)F, which melting point is on record?
**A.** 290 to 292 °C

**Q.** For CCOC(=O)CN(Cc1ccccc1)C(=O)Cn1c2cccc(OCc3ccccc3)c2c2c(COC)c(C(=O)OC(C)C)ncc21, which melting point is on record?
**A.** 122 °C

**Q.** For COC(=O)C(Cl)Cc1cc(F)c(-n2c(=O)cc(C(F)(F)F)n(C)c2=O)cc1[N+](=O)[O-] (centres undefined), which melting point is on record?
**A.** 60 to 65 °C

**Q.** Which melting point does the source give for COc1cccc2c(=O)c(C(N)=O)c(N)oc12 here?
**A.** 302 °C

**Q.** For CC(C)C[C@H](NC(=O)[C@H](Cc1ccccc1)NCC(S)C(N)Cc1ccccc1)C(=O)O (some centres undefined), which melting point is on record?
**A.** 123 to 160 °C

**Q.** Which melting point does the source give for Cc1cc(C)c(-n2ccc3c(OCc4ccc(C(F)(F)F)cc4)nn(C)c(=O)c32)c(C)c1 here?
**A.** 178 to 180 °C

**Q.** For Cc1ccc(-c2nc3cc(N=C=S)ccc3o2)o1, which melting point is on record?
**A.** 110 to 121 °C

**Q.** With Cc1nnc(C(C)C)n1C1CC2CCC(C1)N2CCC(NC(=O)C1CCC(F)(F)CC1)c1ccc(N)cc1 (centres undefined) as the compound, how does the melting point read?
**A.** 103 to 105 °C

**Q.** With COc1ccccc1C(=O)c1cccnn1 as the compound, how does the melting point read?
**A.** 125 to 126 °C

**Q.** With CNC(=O)Cc1ccc2ccn(C3CCN(CCc4ccc(F)cc4)CC3)c2c1 as the compound, how does the melting point read?
**A.** 149 to 150 °C

**Q.** For CCCCn1c(=O)c2c(ncn2S(=O)(=O)c2cc(C)c(Cl)cc2C)n(CCCC)c1=O, which melting point is on record?
**A.** 138 to 140 °C

**Q.** Which melting point does the source give for Cc1cc(O)nc(SCC(N)=O)n1 here?
**A.** 238 to 240 °C

**Q.** Which melting point does the source give for O=C1CCC2(CC3CCC2CC3)C(=O)N1 (centres undefined) here?
**A.** 183 to 184 °C

**Q.** Which melting point does the source give for CC1Nc2ccccc2N2CCc3cccc1c32 (centres undefined) here?
**A.** 127 to 134 °C

**Q.** With CCOc1ccc2c(c1)cc1n2CCC1 as the compound, how does the melting point read?
**A.** 101 to 102 °C

**Q.** With O=C(O)c1ccc2cc(-c3ccc(CCCO)c(C45CC6CC(CC(C6)C4)C5)c3)ccc2c1 as the compound, how does the melting point read?
**A.** 262 °C

**Q.** With CCc1cn(C2CC(O)C(CNC(=O)Cc3c(Cl)cccc3Cl)O2)c(=O)[nH]c1=O (centres undefined) as the compound, how does the melting point read?
**A.** 296 to 297 °C

**Q.** With COCCOC(=O)C1=C(O)c2ccccc2S(=O)(=O)N1C as the compound, how does the melting point read?
**A.** 106 to 108 °C

**Q.** For O[C@@H]1[C@H](O)CS[C@H]1n1cnc2c(NCc3ccccc3Cl)nc(Cl)nc21, which melting point is on record?
**A.** 199 to 200 °C
